Reference: publication PMC12476894, “Identification of α‑Azacyclic Acetamide-Based Inhibitors of P. falciparum Na^+ Pump (PfATP4) with Fast-Killing Asexual Blood-Stage Antimalarial Activity by Phenotypic Screening” (ACS Infectious Diseases, 2025)
In brackets after ≈: the same amount, converted by molar mass. Like-named read-outs stand apart in the source and are kept apart here.

Tests used:
PfD10 attB + yDHODH = experiment: 72 h SYBR Green growth inhibition, strain expressing yeast DHODH; assay type: cell-based; details: Plasmodium falciparum, read-out: PfD10 attB + yDHODH EC50, 72 h SYBR Green assay
Dd2-B2 (PfATP4^WT) = experiment: Drug susceptibility assay for cross-resistance profiling (Fidock Lab), parental line; assay type: cell-based, Plasmodium falciparum; details: Plasmodium falciparum, DD2, 72 h, read-out: EC50, Dd2-B2
[1] = system: P. falciparum Dd2 (PfDd2) parasites; experiment: 72 h SYBR Green growth inhibition, ABS P. falciparum Dd2 (Phillips Lab); assay type: cell-based, Plasmodium falciparum; details: Plasmodium falciparum
[2] = system: P. falciparum 3D7 parasites (Pf3D7); experiment: 72 h SYBR Green growth inhibition, ABS P. falciparum 3D7 (Phillips Lab); assay type: cell-based, Plasmodium falciparum; details: Plasmodium falciparum, 3D7; 72 h SYBR Green assay; mean ± SEM (n)
[3] = system: P. falciparum NF54^luc parasites; experiment: Luciferase reporter (LR) / BRRoK assay, PfNF54^luc; assay type: cell-based; details: Plasmodium falciparum, NF54, Hec50, 72 h
physchem = details: kinetic from dmso stock
[4] = system: P. falciparum NF54^luc parasites; experiment: Luciferase reporter (LR) / BRRoK assay, PfNF54^luc; assay type: cell-based, Plasmodium falciparum; details: Plasmodium falciparum, NF54, Hec50; luciferase reporter, 6 h
Dd2^P412L (PfATP4^P412L) = experiment: Drug susceptibility assay for cross-resistance profiling (Fidock Lab), P412L; assay type: cell-based, Plasmodium falciparum; details: Table 3 data set; for EC50: Plasmodium falciparum, DD2, 15-selected line
PfDd2 parasites = experiment: Resistance selection by drug pulses, time to recrudescence; assay type: cell-based, Plasmodium falciparum
Protocol: (§1) To confirm the MOA for the α-azacyclic acetamides against P. falciparum and to obtain potential information about whether or not they bind PfATP4 at an overlapping site with that of KAE609, we undertook resistance selections using PfDd2 parasites using the published cycling drug selection method. , α-Azacyclic acetamides 2 and 3 were chosen as representative examples of the pyrrole- and indole-based series, respectively. […] Additional cycles were performed at 20 × EC50, until resistant parasites were detected based on a fold change in EC50 compared to the parental clonal Dd2 line (Table S3). Resistant parasites were detected in the 2-selections in all 4 flasks after 4 pulses and for 3-selections in 3 flasks after 5 pulses. Clonal lines were generated from each flask, and one clone per flask was selected for WGS and EC50 determination (Tables S4 and S5). WGS analysis identified two single point mutations in PfATP4 that were not present in the original clonal Dd2 parasite line (Tables and S4). P412L was found in three of four flasks containing 2-selected resistance clones, and F917L was identified in all three flasks containing 3-selected clones and in the fourth flask containing 2-selected clones (Table S4). PfATP4 mutations identified by the WGS analysis in parasite lines were verified by PCR of the pfatp4 gene, followed by Sanger sequencing (Figures S5, S6 and Table S6). An additional protein coding gene (ribosomal protein S8e) was mutated in the 2-selections. However, this mutation was identified in only one of four sequenced clones and is therefore unlikely to be related to resistance to 2 (Figure S7). All three resistant clones derived from the 3-selections harbored an identical mutation in a gene (pfcpu) encoding a conserved protein of unknown function, which was absent in the parental line (Figure S8).
(§2) Resistant Dd2 parasites were selected using a high-pressure intermittent selection protocol using a previously described method. Selections were set up using 4 flasks per compound starting with approximately 3 × 10^9 parasites per flask (80 mL per flask, 4% hematocrit, 3% parasitemia at the beginning of each pulse, mostly ring-stage parasites via previous sorbitol synchronization. Pulse 1 and 2 (48 h) were conducted at 10xEC50, and subsequent pulses were conducted at 20xEC50. Parasites cleared within 48 h under these conditions. 3-Selections used a total of 4 pulses, while 2-selections required 5 pulses before resistant parasites emerged (Table S3). Culture media was replenished daily for a week after each pulse, then every 2 days with weekly replenishment of blood. Cultures were monitored by microscopy until recrudescence. Clonal parasites were obtained from each flask by limiting dilution and maintained in drug free RPMI-1640 media prior to being analyzed for EC50 shifts. Established clonal lines were aliquoted and stored at −80 °C after suspension in Glycerolyte 57 solution (Baxter Cat no 4A7831).

[5] = system: Pf3D7 trophozoites, pHcyt (PfATP4 and other plasma membrane transporters); experiment: P. falciparum pH fingerprint assay; details: 5 μM, compared with KAE609 50 nM
[6] = system: P. falciparum NF54^luc parasites; experiment: 72 h SYBR Green growth inhibition, PfNF54^luc; assay type: cell-based; details: Plasmodium falciparum, 72 h SYBR Green assay, read-out: PfNF54^luc EC50
[7] = system: PfDd2 parasites, 2- or 3-selected bulk cultures; experiment: EC50 of bulk cultures after rounds of resistance selection; assay type: cell-based; details: Plasmodium falciparum, read-out: bulk culture EC50
Protocol: as §1, §2

PfD10 attB = experiment: 72 h SYBR Green growth inhibition, PfD10 attB; assay type: cell-based; details: Plasmodium falciparum; 72 h SYBR Green assay
in vitro = in vitro ADME; details: human liver microsomes, 1 µM compound, 0.4 mg/mL protein
[8] = DD2, 72 h, read-out: PfDd2 EC50

Structure (SMILES) | EC50 (PfD10 attB + yDHODH) | EC50 (Dd2-B2 (PfATP4^WT)) | EC50 [1, 8] | EC50 [2] | EC50 [3] | solubility (physchem; pH 2, simulated gastric fluid) | solubility (physchem; pH 6.5, aqueous buffer) | EC50 [4] | EC50 (Dd2^P412L (PfATP4^P412L)) | EC50 fold-change vs Dd2-B2, Dd2^P412L (Dd2^P412L (PfATP4^P412L)) | Time to Recrudescence (PfDd2 parasites; Pulse 1, 10×EC50, Flasks #1-4) | Time to Recrudescence (PfDd2 parasites; Pulse 2, 10×EC50, Flasks #1-4) | Time to Recrudescence (PfDd2 parasites; Pulse 3, 20×EC50, Flasks #1-4) | pH fingerprint, +Glucose + CMA condition (in words) [5] | EC50 [6] | EC50 (PfD10 attB) | microsomal CLint (in vitro) | other results
Cc1ccnc(NC(=O)Cn2cccc2-c2nc(-c3ccccc3)cs2)c1 [compound 2, N-(4-methylpyridin-2-yl)-2-(2-(4-phenylthiazol-2-yl)-1H-pyrrol-1-yl)acetamide] | 990 nM | 380 ± 31 nM | 830 ± 48 nM | 830 ± 71 nM | 470 ± 51 nM | 99 µM (≈ 37.1 µg/mL) | 3.2 µM (≈ 1.2 µg/mL) | 1100 ± 90 nM | 34000 ± 1300 nM | 89 fold | 8 days | 6 days | 7 days | maximal/near-maximal inhibition of PfATP4 | 720 ± 19 nM | 1200 nM | > 866 µL/min/mg | EC50 ([1]; DD2, read-out: EC50, Dd2 Parent (clone B8)): 780 nM; Time to Recrudescence (PfDd2 parasites; Pulse 4, 20×EC50, Flasks #1-4): 3 days; Time to Recrudescence (PfDd2 parasites; Pulse 5, 20×EC50, Flasks #1-4, after pulse): 2 days; EC50 ([7]; 2-selected Flask 1, after Pulse 3 (20×EC50)): 570 nM; EC50 ([7]; 2-selected Flask 1, after Pulse 4 (20×EC50)): 8400 nM; EC50 ([7]; 2-selected Flask 2, after Pulse 3 (20×EC50)): 580 nM; EC50 ([7]; 2-selected Flask 2, after Pulse 4 (20×EC50)): > 10000 nM; EC50 ([7]; 2-selected Flask 3, after Pulse 3 (20×EC50)): 1100 nM; EC50 ([7]; 2-selected Flask 3, after Pulse 4 (20×EC50)): > 10000 nM; EC50 ([7]; 2-selected Flask 4, after Pulse 3 (20×EC50)): 810 nM; EC50 ([7]; 2-selected Flask 4, after Pulse 4 (20×EC50)): 6600 nM
Cc1nn(CCNC(=O)Cn2c(C)c(C#N)c3ccccc32)c(C)c1Cl [compound 3, N-(2-(4-chloro-3,5-dimethyl-1H-pyrazol-1-yl)ethyl)-2-(3-cyano-2-methyl-1H-indol-1-yl)acetamide] | 930 nM | 540 ± 54 nM | 1100 ± 72 nM | 1100 ± 71 nM | 720 ± 3.1 nM | 25 µM (≈ 9.25 µg/mL) | 25 µM (≈ 9.25 µg/mL) | 1600 ± 71 nM | 4100 ± 450 nM | 7.6 fold | 5 days | 4 days | 4 days | submaximal inhibition | 940 ± 2.7 nM | 1300 nM | > 866 µL/min/mg | EC50 ([1]; DD2, read-out: EC50, Dd2 Parent (clone G9)): 990 nM; Time to Recrudescence (PfDd2 parasites; Pulse 4, 20×EC50, Flask #1): 6 days; Time to Recrudescence (PfDd2 parasites; Pulse 4, 20×EC50, Flasks 2 - 4): 2 days; EC50 ([7]; 3-selected Flask 1, after Pulse 2 (10×EC50)): 720 nM; EC50 ([7]; 3-selected Flask 1, after Pulse 3 (20×EC50)): 1200 nM; EC50 ([7]; 3-selected Flask 2, after Pulse 2 (10×EC50)): 840 nM; EC50 ([7]; 3-selected Flask 2, after Pulse 3 (20×EC50)): > 10000 nM; EC50 ([7]; 3-selected Flask 3, after Pulse 2 (10×EC50)): 1000 nM; EC50 ([7]; 3-selected Flask 3, after Pulse 3 (20×EC50)): > 10000 nM; EC50 ([7]; 3-selected Flask 4, after Pulse 2 (10×EC50)): 1100 nM; EC50 ([7]; 3-selected Flask 4, after Pulse 3 (20×EC50)): > 10000 nM
